Key:
PRMT5/MEP50 complex = target: T1, PRMT5/MEP50 complex (Homo sapiens, UniProt O14744); assay: PRMT5/MEP50 SPA Assay; assay type: biochemical; conditions: Mean ± SEM
T1 construct: FLAG; made in house; host or cells: baculovirus/Sf9 insect cells
From the text: The purpose of this assay is to measure the ability of a test compound to inhibit the enzyme activity of PRMT5 in vitro by inhibiting the catalytic activity of PRMT5/MEP50 complex, indicated by the transfer of radiolabeled methyl-^3H to a substrate peptide derived from the N-terminal sequence of the human histone H4.
Express the PRMT5/MEP50 enzyme complex using a baculovirus/Sf9 system and purify using anti-FLAG affinity chromatography, (essentially as described in preparations by Stephen Antonysamy, Zahid Bonday, Robert M. Campbell, Brandon Doyle, Zhanna Druzina, Tarun Gheyi, Bomie Han, Louis N. Jungheim, Yuewei Qian, Charles Rauch, Marijane Russell, J. Michael Sauder, Stephen R. Wasserman, Kenneth Weichert, Francis S. Willard, Aiping Zhang, and Spencer Emtage; Crystal structure of the human PRMT5:MEP50 complex, Proceedings of the National Academy of Sciences, 2012, Volume 109, pages 17960-17965.) Dilute purified enzyme to a working stock of 6.67 nM in assay buffer (50 mM TRIZMA® preset pH ˜8.5, 1 mM DTT, 0.005% TWEEN® 80 0.01% HSA).
Add enzyme (15 μL/well) to a 384-well assay plate (CORNING® cat. #3706). Add test compounds from a 10 mM DMSO stock solution to the plate as serial dilutions in assay buffer to achieve a final test concentrations ranging from 50.0 μM to 25 nM. Create a reaction mix containing 1 μM Histone H4 biotinylated peptide substrate, H-[…]-biotin (SEQ ID NO: 1), prepared by FastMoc chemistry with an ABI 431 peptide, and 4 μM ^3H-SAM; 15 Ci/mmol, 0.366 mCi/mL, 37 μM, PERKIN-ELMER® cat. # NET155000MC) in assay buffer. To each plate well, add 5 μL of the peptide/^3H-SAM reaction mix to yield final assay conditions of 5 nM enzyme, 1 ^3H-SAM, 250 nM peptide and 50 μM maximum test compound concentration with 0.5% DMSO, at a final volume of 20 μL. Incubate the assay for 2 hr at room temperature. Stop the reaction with the addition of guanidine HCl (5 M, 20 μL, Sigma cat. # G3272).
Suspend strepavidin YSI SPA scintillation beads (PERKIN-ELMER®, #RPNQ0012) at 1 mg/mL in pH ˜8.5 Tris buffer containing 5 M guanidine HCl. To each well, add 20 μL of this bead suspension, agitate the resulting mixtures, and incubate for 1 hr at room temperature prior to measuring their radioactivity, using a microplate liquid scintillation counter as an indication of the formation of methylated peptide product.
Generate raw data from the radioactivity measurement as counts per min (CPM). Employ an uninhibited control (DMSO) and maximum inhibited control (250 μM dehydrosinefungin, (isolated essentially as described in Berry, D. R. & Abbott, B. J. Incorporation of carbon-14-labeled compounds into sinefungin (A9145), a nucleoside antifungal antibiotic. J. Antibiot. 1978 (31) 185-191 and references cited therein)). […]

[1] = system: PRMT5-dependent alternative splicing of MDM4 in A375 melanoma cells; assay: MDM4 Exon5/6 qPCR Assay in A375 Tumor Cells; assay type: cell-based; conditions: Homo sapiens, A-375, 72 hr, Mean ± SEM
Method: Culture A375 tumor cells (ATCC), a melanoma cancer cell line, to 70%-90% confluence in T150 flasks with the growth medium (DMEM; HYCLONE™ #SH30022 with 10% FBS; GIBCO® 10082-147 or equivalent). Treat the cells with standard trypsin/EDTA treatment for 3 min and aspirate and wash with PBS to release the adherent cells from the culture flask. Seed the cells into a 96 well plate (Costar 3596) at 5000/well in growth medium (90 μL). Incubate the plate overnight at 37° C. and 5% CO2 and treat the cells with test compound at serial dilutions ([…], final DMSO addition of 0.2% yield) for 72 hr. Measure activity relative to maximum (2.0 μM of Example 2 and minimum (0.2% DMSO) controls.
On Day 5 after incubation, remove the medium from the culture plates and wash the cells twice with cold PBS (150 μL/well). Prepare Lysis Working Reagent from the TAQMAN® Gene Expression Cells-to-CT Kit (INVITROGEN™ cat. # AM1729) by dilution of DNAse 1 into Lysis Solution at 1/100. Add Lysis Working Reagent (50 μL/well) to the cell plates, mix well, and incubate at room temperature for 5 min Add kit stop solution (5 μL) to each well, mix the wells, and incubate for 2 min at room temperature. Prepare Reverse Transcriptase Master Mix in the following volume ratios; RT buffer: Nuclease-free water: RT Enzyme at 62.5:31.25:6.25. Add RT mix (48 μL/well) to each well of a 96-well NUNC™ plate (THERMO SCIENTIFIC™ #260860). Add RT mix (20 μL) and each cell lysate sample (5 μL) into a 384 PCR plate (Clear Optical Reaction Plate, cat. #4309849, APPLIED BIOSYSTEMS®) quadrant 1 and add a second addition of RT Mix and cell lysate to quadrant 3. For the RT reaction, seal the plates and then place them in a thermal cycler set at 37° C. for 60 min; 95° C. for 5 min; stop at 4° C. For qPCR, prepare MDM4 exon 5 primers (Life Technologies Hs00967240-ml) and exon 6 primers (Life Technologies Hs00967242-ml) separately in the following volume ratios of RT mix: H2O: exon probe at 10:6:1. Add Exon 5 (17 μL) to odd columns of a 384 PCR plate and add exon 6 (17 μL) to the even columns. Add cDNA (3 μL, from the RT plate) by quadrant stamping to each well of the qPCR plate containing the 17 μL exon primer solution. In this manner, perform qPCR for both exons on cDNAs from a single RT reaction on an individual cell lysate. Seal the plates, spin, and place on a real-time PCR instrument (Life Technologies ViiA7 Real-Time PCR). […]
Retrieve CT data from the real-time PCR reader and perform the following calculations, where “CPD” is the value from compound-treated samples, and “DMSO” is the minimum control sample, using an Excel template: (Exon 6 CT CPD−Exon 6 CT DMSO)−(Exon 5 CT CPD−Exon 5 CT DMSO)=ΔCT 2^(−ΔCT)=Fold Change […]

Molt 4 cells = assay: Xenograft tumor model, acute lymphoblastic leukemia (Molt 4); assay type: in vivo, mouse; conditions: 60 mg/kg BID for 30 days, oral gavage
Method: The purpose of this assay is to measure in a mouse model of cancer the reduction in tumor volume in response to test compound administration.
Grow A375 (melanoma) cells in DMEM/High glucose (HYCLONE™ cat. # SH30022) with 10% HI FBS (GIBCO® cat. #10082-147). Grow Will-2 (DLBCL) cells in RPMI 1640 with L-glutamine and 20% heat inactivated FBS. Grow Namalwa (Burkitt's lymphoma) cells (ATCC) in RPMI 1640 media supplemented with L-glutamine, 25 mM HEPES (GIBCO® 22400-089), 1 mM sodium pyruvate and 7.5% FBS. Grow Molt 4 cells in RPMI 1640 with L-glutamine, 25 mM HEPES [GIBCO 22400-089], 1 mM sodium pyruvate, and 10% FBS. Harvest cells and inject subcutaneously onto the rear flank of nude mice (A375: 5×10^6 cells/animal, mixed 1:1 with MATRIGEL®; Will-2; 1×10^7 cells/animal; Namalwa: 2×10^6 cells/animal; Molt 4: : 5×10^6 cells/animal, mixed 1:1 with MATRIGEL®). When tumors are established (approximately 200 mm^3, 7-21 days after implant), randomize animals, and group them into control and test groups. Formulate the test compound in 1% HEC/0.25% TWEEN®-80/0.05% Antifoam. Administer test compound and vehicles by oral gavage. Determine tumor response by tumor volume measurement (caliper) performed twice a week during the course of treatment and report as the percent inhibition of tumor volume versus the vehicle control group.

GDM-1 cells = assay: Combination with BCL2 inhibitor ABT-199 in AML cell lines, 4-day cell proliferation assay; assay type: cell-based; conditions: GDM-1, treatment duration 4 Days; single agent or combination; read-out: Absolute IC50 (cell proliferation)
Method: (§1) On day 1, plate GDM-1 [ATCC®, maintained throughout in GDM-1 assay medium: RPMI-1640 medium/20% heat-inactivated FBS (GIBCO®)] and EOL-1 cells [ATCC®, maintained throughout in EOL-1 assay medium: RPMI-1640 medium/10% heat-inactivated FBS (GIBCO®)] at 4000 and 10000 cells/well (100 μL/well) respectively, in a 96-well assay plate (BD FALCON® 35-3219). Incubate the plates in a 37° C. incubator (5% CO2) for 18-24 hr. On day 2, prepare 2.0% DMSO with assay medium (as indicated above or RPMI-1640/20% heat-inactivated FBS and RPMI-1640/10% FBS for GDM-1 and EOL-1, respectively) and add 100 μL to columns 3-12 in a preparation plate. Prepare test compounds ABT-199 at 10 μM in 2% DMSO and PRMT5 inhibitor Example 1 at 25 μM in 2% DMSO and dispense into wells A2 and B2, respectively, followed by serial dilution (1:3, 10 points) to wells A11 and B11, respectively. For combinational treatment, serially dilute test compound examples at 1:2 in assay medium (as indicated above or RPMI-1640/20% heat-inactivated FBS and RPMI-1640/10% FBS for GDM-1 and EOL-1, respectively) in wells C2-C11 (0.1 μM) to H2-H11, then serially dilute test compound ABT-199 1:3 from C2-H2 (1.0 μM) to C11-H11. […] Incubate plates for 10-15 min at room temperature before reading. Measure luminescence using the PERKIN-ELMER® ENVISION® Multi-Label Reader. […]

EOL-1 cells = assay: Combination with BCL2 inhibitor ABT-199 in AML cell lines, 7-day cell proliferation assay; assay type: cell-based; conditions: EOL-1, treatment duration 7 Days; single agent or combination; read-out: Absolute IC50 (cell proliferation)
Method: as §1

T1 sequence (O14744 whole entry): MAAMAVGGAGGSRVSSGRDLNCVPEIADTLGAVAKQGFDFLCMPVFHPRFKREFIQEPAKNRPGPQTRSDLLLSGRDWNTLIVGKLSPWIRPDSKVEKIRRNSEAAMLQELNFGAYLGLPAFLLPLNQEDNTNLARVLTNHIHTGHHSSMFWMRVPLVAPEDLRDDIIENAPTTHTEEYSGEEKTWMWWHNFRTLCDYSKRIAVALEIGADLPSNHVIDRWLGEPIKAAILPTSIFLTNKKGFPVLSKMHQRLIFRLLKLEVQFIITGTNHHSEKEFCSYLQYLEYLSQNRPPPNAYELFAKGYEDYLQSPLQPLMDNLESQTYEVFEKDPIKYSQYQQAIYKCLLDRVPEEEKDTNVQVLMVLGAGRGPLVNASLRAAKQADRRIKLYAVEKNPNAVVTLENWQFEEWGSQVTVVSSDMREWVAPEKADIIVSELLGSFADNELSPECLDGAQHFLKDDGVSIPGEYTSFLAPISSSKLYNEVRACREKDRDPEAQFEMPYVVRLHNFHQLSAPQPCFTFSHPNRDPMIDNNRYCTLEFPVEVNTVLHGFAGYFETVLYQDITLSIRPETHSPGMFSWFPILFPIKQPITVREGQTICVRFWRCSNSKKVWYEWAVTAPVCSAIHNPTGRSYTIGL
T1 sequence (Q9BQA1 whole entry partner): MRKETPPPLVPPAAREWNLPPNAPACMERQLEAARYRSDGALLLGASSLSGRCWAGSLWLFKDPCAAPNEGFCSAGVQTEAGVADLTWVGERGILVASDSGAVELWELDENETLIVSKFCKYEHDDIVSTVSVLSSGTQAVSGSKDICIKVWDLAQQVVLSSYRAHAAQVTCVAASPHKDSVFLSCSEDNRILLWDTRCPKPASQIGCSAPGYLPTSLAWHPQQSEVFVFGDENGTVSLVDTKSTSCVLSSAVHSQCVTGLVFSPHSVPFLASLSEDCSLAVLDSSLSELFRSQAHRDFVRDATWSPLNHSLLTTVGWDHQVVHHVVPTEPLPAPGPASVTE

Row | IC50 (PRMT5/MEP50 complex) | EC50 [1] | Compound | percent inhibition of tumor volume versus vehicle (Molt 4 cells) | IC50 (GDM-1 cells) | IC50 (EOL-1 cells)
1 | 5.2 nM | 1040 nM | Nc1ncnc2c1ccn2[C@@H]1O[C@H]([C@H](O)c2ccc(Cl)c(OC3CC3)c2)[C@@H](O)[C@H]1O [Example 4, (2R,3R,4S,5R)-2-(4-aminopyrrolo[2,3-d]pyrimidin-7-yl)-5-[(R)-[4-chloro-3-(cyclopropoxy)phenyl]-hydroxy-methyl]tetrahydrofuran-3,4-diol] | −75% | – | –
2 | – | – | ABT-199 [reference compound] | – | 7 nM | 30 nM
